Test results published in article PMC5738440, “Identification and characterization of the structure–activity relationships involved in UGT1A1 inhibition by anthraquinone and dianthrone constituents of Polygonum multiflorum” (Scientific Reports, 2017).
Like-named read-outs stand apart in the source and are kept apart here.

Experiments:
UGT1A1 [1] = target: T1, UGT1A1 (Rattus norvegicus, UniProt Q64550); assay: UGT1A1 inhibition: bilirubin glucuronidation in rat liver microsomes (RLM), enzyme inhibition kinetics; conditions: for Mode of inhibition: Lineweaver-Burk and Dixon plots
T1 sequence (Q64550 30-535): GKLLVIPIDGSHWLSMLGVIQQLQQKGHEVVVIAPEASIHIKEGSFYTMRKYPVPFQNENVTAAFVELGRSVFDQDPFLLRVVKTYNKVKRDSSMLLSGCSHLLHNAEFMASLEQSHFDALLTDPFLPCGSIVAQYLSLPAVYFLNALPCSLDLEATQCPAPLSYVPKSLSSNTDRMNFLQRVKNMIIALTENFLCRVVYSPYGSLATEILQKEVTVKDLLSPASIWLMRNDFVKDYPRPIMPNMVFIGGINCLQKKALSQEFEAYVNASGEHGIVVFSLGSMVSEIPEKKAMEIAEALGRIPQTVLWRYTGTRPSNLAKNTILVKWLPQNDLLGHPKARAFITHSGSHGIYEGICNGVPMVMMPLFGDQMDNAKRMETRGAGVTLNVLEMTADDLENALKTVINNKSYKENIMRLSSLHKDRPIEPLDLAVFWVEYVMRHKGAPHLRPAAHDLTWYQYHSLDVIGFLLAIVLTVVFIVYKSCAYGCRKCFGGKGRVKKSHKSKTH
Procedure: UGT1A1 activity assays were conducted at 37 °C in a shaking water bath[41]. Incubation mixtures (final volume, 0.2 mL) contained 0.5 mg/mL RLM, 0.1 M Tris-HCl (pH 7.4), 5 mM MgCl2, 5 mM D-saccharic acid 1,4-lactone, 3.5 mM UDPGA, and 50 mg/g protein alamethicin. Bilirubin (as a UGT1A1 substrate) and the test samples were dissolved in 100% dimethylsulfoxide (DMSO) immediately before being added to the incubation mixtures. […] The reaction was initiated by adding UDPGA after a 5-min pre-incubation at 37 °C; it was terminated after 10 min by adding 0.6 mL of ice-cold methanol: acetonitrile (1:2) containing 200 mM ascorbic acid. Proteins were precipitated by centrifugation at 13,000 × g for 30 min at 4 °C prior, and the supernatants were analyzed by UPLC.The assays were done in triplicates respectively.
Bilirubin glucuronidation was evaluated in the presence of various concentrations of bilirubin and potential inhibitors, as described above. Samples were analyzed in triplicate to determine their inhibition constants (Ki). For assays with inhibitors, the bilirubin concentration was 0.12 to 1.37 μM.
The inhibition kinetic type and parameters were determined by fitting the reaction velocities of different concentrations of test components (inhibitors) and bilirubin (substrate). Lineweaver–Burk and Dixon fitting equations were employed to determine the inhibition type, and the second plot (drawn using the slope of lines in the Lineweaver–Burk plot versus inhibitor concentrations) was used to calculate the Ki values. The results were analyzed using GraphPad Prism 5 software (GraphPad Inc., San Diego, CA, USA)[48]. […] The goodness-of-fit of the inhibition models was estimated using the F statistic, R^2 value, parameter standard error estimates, and 95% confidence intervals.

UGT1A1 [2] = conditions: HLM system, competitive; cited from earlier work
rUGT1A1 = rUGT1A1 system, competitive; cited from earlier work
UGT1A1 [3] = target: T1, UGT1A1; conditions: RLM system, competitive; cited from earlier work
[4] = Ki value, bilirubin substrate, extract concentration based on emodin content

| Structure (SMILES) | Ki (UGT1A1 [1]; [4]) | Mode of inhibition (UGT1A1 [1]) | Ki at 10 min (UGT1A1 [1]; rat, pH 7.4, probe bilirubin (0.12-1.37 μM), Ki value, bilirubin substrate, extract concentration based on emodin content) | Ki (UGT1A1 [2]) | Ki (rUGT1A1) | Ki (UGT1A1 [3]) |
| --- | --- | --- | --- | --- | --- | --- |
| O=C(O)c1cc(O)c2c(c1)C(=O)c1cccc(O)c1C2=O [Rhein] | 127 µM | Mixed Type inhibition | – | – | – | – |
| Cc1cc(O)c2c(c1)C(=O)c1cc(O)cc(O)c1C2=O [Emodin] | 10 µM | Competitive inhibition | – | 5.4 ± 0.956 µM | 4.85 ± 0.528 µM | 10 ± 0.611 µM |
| Cc1cc(O)c2c(c1)C(C1c3cc(C)cc(O)c3C(=O)c3c(O)cc(O)cc31)c1cc(O)cc(O)c1C2=O (stereo not drawn) [Cis-emodin dianthrones] | 0.863 µM | – | – | – | – | – |
| COc1cc(O)c2c(c1)C(=O)c1cc(C)cc(O)c1C2=O [Physcion] | 94.7 µM | Non-Competitive inhibition | – | – | – | – |
| Cc1cc(O)c2c(c1)C(C1c3cc(C)cc(O)c3C(=O)c3c(O)cc(O)cc31)c1cc(O)cc(O)c1C2=O (stereo not drawn) [Trans-emodin dianthrones] | 1.08 µM | Competitive inhibition | – | – | – | – |
| O=C1c2cc(O)cc(O)c2C(=O)c2c(O)cc(CO)cc21 [Citreorosein] | 18.6 µM | Mixed Type inhibition | – | – | – | – |

Further lines, with some results ahead:

| Ki (UGT1A1 [1]; [4]) | Mode of inhibition (UGT1A1 [1]) | Ki at 10 min (UGT1A1 [1]; rat, pH 7.4, probe bilirubin (0.12-1.37 μM), Ki value, bilirubin substrate, extract concentration based on emodin content) | Structure (SMILES) | Ki (UGT1A1 [2]) | Ki (rUGT1A1) | Ki (UGT1A1 [3]) |
| --- | --- | --- | --- | --- | --- | --- |
| 77.4 µM | Un-Competitive inhibition | – | Cc1cc(O)c2c(c1)C(C1c3cc(C)cc(O)c3C(=O)c3c(OC4OC(CO)C(O)C(O)C4O)cc(O)cc31)c1cc(O)cc(O)c1C2=O (stereo not drawn) [Polygonumnolide C4] | – | – | – |
| 12.9 µM | Non-Competitive inhibition | – | Cc1cc(O)c2c(c1)C(C1c3cc(C)cc(O)c3C(=O)c3c(OC4OC(CO)C(O)C(O)C4O)cc(O)cc31)c1cc(O)cc(O)c1C2=O (stereo not drawn) [Polygonumnolide C3] | – | – | – |
| 4.29 µM | Non-Competitive inhibition | 4.22 µM | Cc1cc(O)c2c(c1)C(C1c3cc(C)cc(O)c3C(=O)c3c(OC4OC(CO)C(O)C(O)C4O)cc(O)cc31)c1cc(O)cc(O)c1C2=O (stereo not drawn) [Polygonumnolide C2] | – | – | – |
